Data as given in article PMC3907362, “Synthetic cationic antimicrobial peptides bind with their hydrophobic parts to drug site II of human serum albumin” (BMC Structural Biology, 2014).
“And” between values parts separate entries of the source, which are not always exact repeats. Identical values can stand only once. “Also recorded” adds a separate entry of the source. Like-named read-outs stand apart in the source and are kept apart here. Residues, ends and D or L forms follow the SMILES beside them.

Legend:
[1] = test system: Escherichia coli ATCC 25922; format: cell-based
Procedure: (§1) The antibacterial activity of CAP 1 and CAP 5 were tested towards Staphylococcus aureus strain ATCC 25923, methicillin resistant Staphylococcus aureus strain ATCC 33591 and Escherichia coli strain ATCC 25922. The studies were performed by Toslab AS employing standard methods.

[2] = test system: Methicillin resistant Staphylococcus aureus ATCC 33591; format: cell-based
Procedure: as §1

[3] = test system: Staphylococcus aureus strain ATCC 25923; format: cell-based
Procedure: as §1

selected bacteria = assay: MIC towards selected bacteria, summary over strains; format: cell-based; settings: all bacterial strains tested
Procedure: as §1

[4] = target: T1, human serum albumin (HSA) (Homo sapiens, UniProt P02768); assay: Non-competitive isothermal titration calorimetry (ITC); settings: for Kd: pH 7.4
T1 sequence (P02768 25-609): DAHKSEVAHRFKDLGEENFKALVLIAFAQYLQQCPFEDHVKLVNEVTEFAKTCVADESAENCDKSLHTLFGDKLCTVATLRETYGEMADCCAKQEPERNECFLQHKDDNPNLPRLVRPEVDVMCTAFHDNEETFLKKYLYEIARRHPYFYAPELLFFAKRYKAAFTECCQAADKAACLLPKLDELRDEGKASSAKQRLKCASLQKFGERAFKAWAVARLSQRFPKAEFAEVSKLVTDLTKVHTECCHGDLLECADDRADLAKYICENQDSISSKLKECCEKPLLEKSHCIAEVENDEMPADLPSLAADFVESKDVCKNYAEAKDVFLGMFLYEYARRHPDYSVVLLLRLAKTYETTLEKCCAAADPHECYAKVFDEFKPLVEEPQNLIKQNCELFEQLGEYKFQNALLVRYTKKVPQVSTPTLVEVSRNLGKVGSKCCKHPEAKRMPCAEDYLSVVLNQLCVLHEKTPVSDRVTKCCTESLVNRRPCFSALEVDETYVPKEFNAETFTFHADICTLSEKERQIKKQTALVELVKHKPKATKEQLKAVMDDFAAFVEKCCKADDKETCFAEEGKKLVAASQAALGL
Procedure: The experiments were either performed on a CSC 5300 Nano-Isothermal Titration Calorimeter III (Calorimetry Sciences Corporation, Utah, USA) with a cell volume of 1 mL, or a MicroCal™ iTC200 with a cell volume of 200 μL (MicroCal, LLC., Northampton, MA, USA). In all experiments lyophilized HSA ~99% essential fatty acid and globulin free (Sigma A3782), was weighed out to a nominal concentration and dissolved prior to the experiments in buffer 50 mM Tris, 10 mM CaCl2, pH 7.4 at 25°C. All ligands and peptides were dissolved in the same buffer. Control titrations of ligand into buffer were performed in duplicate to investigate if the heat of dilution would generate a significant signal, and if ligand-ligand interactions were present in the competitive experiments. The same settings as for the corresponding ligand-HSA experiments were applied in the control experiments.
A stirring rate of 150 rpm and an isotherm temperature of 25°C were applied. The response signal was measured at 1 s intervals, and a 200 s baseline was collected prior to the first injection for the purpose of assessing the baseline. Non-competitive experiments were carried out either in duplicates or triplicates. […] In total 40 consecutive injections were performed with a volume of 5 μL and a spacing of 300 s. […] Prior to the first injection, a baseline of 100 s was recorded to ensure instrument stability. The solution was stirred at 150 rpm, and the isothermal temperature set to 25°C. All competitive experiments were carried out in duplicate. […] The first injection was set to a dummy volume of 0.1 μL due to syringe leakage in the baseline equilibration step. An initial delay of 180 s was set to sample the baseline. The applied reference power was 6 μcal/s and an isothermal temperature of 25°C was used. […] For the selected peptides CAP 3 and CAP 5 competitive experiments with reversed order of the reference ligands and the CAP were performed as a control of titration order. The same ITC settings were applied for the non-competitive and competitive experiments with the MicroCal™ iTC200.
The ITC data was analyzed using the NanoAnalyse software from TA Instruments, v2.0.1 (Waters LLC, New Castle, DE, US) or Origin® 7.0. Independent model fit was used to generate the binding isotherm, and the first injection in all titration experiments was omitted in the binding isotherm analysis. The heat of dilution and unspecific binding signal corresponding to the last injection in each experiment was subtracted from all of the heat signals. The quality of the model fit was examined using the statistical modules of the software, the 95% confidence interval based on a 1000 trial calculations in the NanoAnalyze package, and the default non-weighted least square calculation in Origin® 7.0.

HSA = HSA (Homo sapiens, UniProt P02768); assay: NMR WaterLOGSY; format: binding; settings: HSA:ligand 1:20
Sequence of HSA (P02768 25-609): as above
Text: All NMR experiments were acquired on an Agilent (Varian) inova spectrometer operating at 599.934 MHz for ^1H, equipped with a 2nd generation inverse triple resonance HCN cold probe. […] The difference spectra were produced by internal subtraction and all spectra were acquired with both sculpted solvent suppression during the PFG spin echo and 500 ms solvent presaturation during the relaxation delay. The protein signals were suppressed by a 10 ms T1ρ-spinlock. Finally, the spectra were multiplied with a 3 Hz exponential window function. For reference, double PFG spin echo 1D proton spectra were acquired using the same parameters, including the 10 ms T1ρ-spinlock for protein suppression. […] All samples were monitored for line broadening, quickened relaxation and NOE inversion to spot any direct interaction between ligands before the addition of HSA.

[5] = target: T1, human serum albumin (HSA); design: purchased Sigma A3782; settings: HSA drug site II; ref [34],[35]; read-out: binding affinity (Kd), reported in other studies; cited from earlier work
[6] = Kd, CSC 5300 Nano-Isothermal Titration Calorimeter III, 25°C
[7] = Kd, MicroCal iTC200 (values in parenthesis), 25°C
[8] = CSC 5300 Nano-Isothermal Titration Calorimeter III
[9] = MicroCal iTC200 (values in parenthesis)

For `C[C@H](NC(=O)[C@@H](N)CCCNC(=N)N)C(=O)N[C@@H](CCCNC(=N)N)C(N)=O` [CAP 1] (H-Arg-Ala-Arg-NH2), the “MIC E. coli” value [1] was >499 µM, the “MIC MRSA” value [2] was >499 µM and the “MIC S. aureus” value [3] was >499 µM. For the same compound, the “Antimicrobial activity (MIC relative to threshold)” value (selected bacteria) was “inactive”, the “Binding to HSA by ITC, in words” value ([4]; non-competitive ITC) was “did not bind to HSA; also recorded: does not bind to HSA” and the Kd [4] was “-”. The “WaterLOGSY binding to HSA” value (HSA) was “does not interact directly with HSA and does not and not”.

Compound `N=C(N)NCCC[C@H](NC(=O)[C@H](Cc1c[nH]c2ccccc12)NC(=O)[C@@H](N)CCCNC(=N)N)C(=O)NCc1ccccc1` [CAP 2] (HELM PEPTIDE1{R.W.R.[c1ccc(CN[*:1])cc1]}$$$$V2.0) has a Kd [4, 6] of 23 ± 8 µM.

For `N=C(N)NCCC[C@H](NC(=O)[C@H](Cc1ccc(-c2ccccc2)cc1)NC(=O)[C@@H](N)CCCNC(=N)N)C(=O)NCc1ccccc1` [CAP 3] (HELM PEPTIDE1{R.[O=C([C@H](Cc1ccc(-c2ccccc2)cc1)N[*:1])[*:2]].R.[c1ccc(CN[*:1])cc1]}$$$$V2.0), the Kd [4, 6] was 22 ± 9 µM and the Kd [4, 7] was 99 µM.

`CC(C)(C)c1cc(C(C)(C)C)c2[nH]c(C(C)(C)C)c(C[C@H](NC(=O)[C@@H](N)CCCNC(=N)N)C(=O)N[C@@H](CCCNC(=N)N)C(=O)NCc3ccccc3)c2c1` [CAP 4] showed a Kd [4, 6] of 25 ± 9 µM.

With `C[C@H](N)C(=O)N[C@@H](Cc1ccc(-c2ccccc2)cc1)C(=O)N[C@@H](C)C(N)=O` [CAP 5] the “MIC E. coli” value [1] was >523 µM, the “MIC MRSA” value [2] was >523 µM and the “MIC S. aureus” value [3] was >523 µM. It also gave a Kd [4, 7] of 100 µM.

For `CN(C)c1cccc2c(S(=O)(=O)NCC(=O)O)cccc12` [Dgly, dansylglycine], the TΔS [4, 8] was 2.3 ± 0.5 kcal/mol, the “n (stoichiometric ratio)” value [4, 8] was 1.08 ± 0.05 and the ΔH [4, 8] was -4.5 ± 0.3 kcal/mol. It also gave a Kd [4, 6] of 11 ± 4 µM, a Kd [4, 7] of 40 µM and a TΔS [4, 9] of 0.5 ± 0.1 kcal/mol. For the same compound, the “n (stoichiometric ratio)” value [4, 9] was 1.16 ± 0.01, the ΔG [4, 9] was -6.0 kcal/mol and -6.00 ± 0.02 kcal/mol and the ΔH [4, 9] was -5.5 ± 0.1 kcal/mol. The “WaterLOGSY binding to HSA” value (HSA) was “clear WaterLOGSY effect” and the Kd [5] was 1.7 to 3.2 µM.
